Results: patent publication US9315494B2, “Alkyl-amide-substituted pyridyl compounds useful as modulators of IL-12, IL-23 and/or IFNα responses” (Bristol-Myers Squibb Company, priority 2012, dated 2016)
pIC50: −log10 of the molar value. Like-named read-outs stand apart in the source and are kept apart here.

Tests used:
[1] = test system: IFNα-stimulated STAT-dependent luciferase reporter in Kit225 T cells; test: Kit225 T cell assay, IFNα stimulated STAT-dependent luciferase reporter; type: cell-based, human
Summary of the method: (§1)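 Stimulus was either 200 U/mL human recombinant IFNα or 20 ng/mL IL-23, applied for 5-6 h to reporter-bearing Kit225 T cells grown in RPMI/10% FBS. Luciferase expression then quantified by luminescent assay.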

[2] = test system: IL-23-stimulated STAT-dependent luciferase reporter in Kit225 T cells; test: Kit225 T cell assay, IL-23 stimulated STAT-dependent luciferase reporter; type: cell-based, human
Summary of the method: as §1

[3] = Kit225 T cells, 200 U/mL human recombinant IFNα, 5-6 hours, luciferase, read-out: IFNα (Kit225 T Cell Inhibition Data)
[4] = Kit225 T cells, 20 ng/mL human recombinant IL-23, 5-6 hours, luciferase, read-out: IL23 (Kit225 T Cell Inhibition Data)

pIC50 [1, 3] | pIC50 [2, 4] | Compound | pIC50 ([1]; Homo sapiens, KIT225, read-out: IFNα (Kit225 T Cell Inhibition Data)) | pIC50 ([2]; Homo sapiens, KIT225, read-out: IL23 (Kit225 T Cell Inhibition Data))
7.52 | 7.30 | CNC(=O)c1cnc(Nc2cc(C)c(F)cn2)cc1Nc1cccc(C(=O)NC)c1OC [Example 320] |  | 
7.05 | 6.76 | CNC(=O)c1cnc(Nc2ccc(F)cn2)cc1Nc1cccc(F)c1OC [Example 171] |  | 
7.52 | 7.15 | CNC(=O)c1cnc(Nc2cc(C)c(F)cn2)cc1Nc1cccc(C(=O)NCCN2CCOCC2)c1OC [Example 322] |  | 
6.96 | 6.40 | CNC(=O)c1cnc(Nc2cc(C)c(F)cn2)cc1Nc1cccc(C(=O)NCCC(C)C)c1OC [Example 338] |  | 
7.00 | 6.81 | CNC(=O)c1cnc(Nc2ccc(N3CCOCC3)cn2)cc1Nc1ccc(OC)cc1S(C)(=O)=O [Example 7] |  | 
6.40 | 6.14 | CNC(=O)c1cnc(Nc2ccc(OC)cn2)cc1Nc1ccc(Cl)cc1OC [Example 112] |  | 
6.96 | 6.87 | CNC(=O)c1cnc(Nc2cc(C(F)(F)F)ccn2)cc1Nc1ccccc1S(C)(=O)=O [Example 14] |  | 
6.96 | 6.68 | CNC(=O)c1cnc(Nc2cc(C)n(C)n2)cc1Nc1ccccc1S(C)(=O)=O [Example 439] |  | 
6.18 | 6.05 | CNC(=O)c1cnc(Nc2ccc(F)cn2)cc1Nc1cc(F)ccc1OC [Example 199] |  | 
5.69 | 5.48 | CNC(=O)c1cnc(Nc2ccc(F)cn2)cc1Nc1ccc(F)cc1SC [Example 207] |  | 
6.62 | 6.34 | CNC(=O)c1cnc(Nc2ccc(N3CCCC3=O)cn2)cc1Nc1ccccc1S(C)(=O)=O [Example 441] |  | 
6.49 | 6.28 | CNC(=O)c1cnc(Nc2cc(C3CCC3)[nH]n2)cc1Nc1ccccc1S(C)(=O)=O [Example 445] |  | 
6.55 | 6.19 | CNC(=O)c1cnc(Nc2ccc(C)nn2)cc1Nc1ccccc1S(C)(=O)=O [Example 414] |  | 
6.29 | 6.44 | CNC(=O)c1cnc(Nc2ccc(F)cn2)cc1Nc1ccccc1OC [Example 190] |  | 
5.95 | 5.66 | CNC(=O)c1cnc(Nc2ccc(F)cn2)cc1Nc1ccc(C(=O)N2CCOCC2)cc1C [Example 236] |  | 
5.82 | 5.47 | CNC(=O)c1cnc(Nc2ccc(C(F)(F)F)cn2)cc1Nc1cc(F)cc(F)c1OC [Example 135] |  | 
6.36 | 6.40 | CNC(=O)c1cnc(Nc2cc(C)c(F)cn2)cc1Nc1cccc(C(=O)NCCO)c1OC [Example 336] |  | 
7.10 | 7.40 | CNC(=O)c1cnc(Nc2cc(C)c(F)cn2)cc1Nc1ccccc1S(N)(=O)=O [Example 431] |  | 
5.16 | 5.36 | CNC(=O)c1cnc(Nc2ccc(F)cn2)cc1Nc1ccc(F)cc1 [Example 196] |  | 
6.92 | 6.43 | CNC(=O)c1cnc(Nc2ccc(C(F)(F)F)cn2)cc1Nc1ccccc1S(C)(=O)=O [Example 59] |  | 
6.80 | 6.65 | CCOc1c(F)cc(F)cc1Nc1cc(Nc2ccc(N3CCOCC3)cn2)ncc1C(=O)NC [Example 230] |  | 
6.46 | 6.43 | CNC(=O)c1cnc(Nc2cc(C#N)ccn2)cc1Nc1ccccc1C(N)=O [Example 84] |  | 
6.34 | 6.31 | CNC(=O)c1cnc(Nc2cc(NCc3ccccc3)ncn2)cc1Nc1ccccc1S(C)(=O)=O [Example 424] |  | 
5.62 | 5.73 | CNC(=O)c1cnc(Nc2ccc(F)cn2)cc1Nc1ccccc1O [Example 208] |  | 

pIC50 [1, 3] | pIC50 [2, 4] | Compound | pIC50 ([1]; Homo sapiens, KIT225, read-out: IFNα (Kit225 T Cell Inhibition Data)) | pIC50 ([2]; Homo sapiens, KIT225, read-out: IL23 (Kit225 T Cell Inhibition Data))
6.05 | 5.96 | CNC(=O)c1cnc(Nc2cc(C(=O)N3CCOCC3)ccn2)cc1Nc1ccc(F)cc1OC [Example 269] |  | 
5.68 | 5.52 | CCOc1cc(F)ccc1Nc1cc(Nc2ccc(N3CCOCC3)cn2)ncc1C(=O)NC [Example 232] |  | 
 |  | CNC(=O)c1cnc(Nc2ccc(F)cn2)cc1Nc1ccccc1 [Example 184] | 5.39 | 5.10
8.46 | 8.03 | CNC(=O)c1cnc(Nc2ccc(C#N)cn2)cc1Nc1cccc(-c2ncn(C)n2)c1OC [Example 376] |  | 
7.52 | 7.30 | CCCNC(=O)c1cccc(Nc2cc(Nc3cc(C)c(F)cn3)ncc2C(=O)NC)c1OC [Example 339] |  | 
6.54 | 6.62 | CNC(=O)c1cnc(Nc2cc(NC)nc(C)n2)cc1Nc1cccnc1OC [Example 403] |  | 
5.58 | 5.63 | CNC(=O)c1cnc(Nc2ccc(F)cn2)cc1Nc1ccc(C(N)=O)cc1S(C)(=O)=O [Example 303] |  | 
8.00 | 7.70 | CNC(=O)c1cnc(Nc2cc(C)nc(C)n2)cc1Nc1cccc(-c2nnc[nH]2)c1OC [Example 362] |  | 
8.00 | 8.00 | CNC(=O)c1cnc(Nc2cc(C)nc(C)n2)cc1Nc1cccc(-c2ncn(C)n2)c1OC [Example 372] |  | 
6.25 | 6.11 | CNC(=O)c1cnc(Nc2cccc(-c3ccccc3)n2)cc1Nc1cc(F)cc(F)c1OC [Example 143] |  | 
6.68 | 6.46 | CNC(=O)c1cnc(Nc2cc(COC)nc(C)n2)cc1Nc1ccccc1S(C)(=O)=O [Example 418] |  | 
6.20 | 5.98 | CNC(=O)c1cnc(Nc2ccc(N3CCOCC3)cn2)cc1Nc1ccccc1C(N)=O [Example 85] |  | 
7.70 | 7.22 | CNC(=O)c1cnc(Nc2cc(C)nc(C)n2)cc1Nc1cccc(-c2nnc(C)o2)c1OC [Example 361] |  | 
5.08 | 5.09 | CNC(=O)c1cnc(Nc2ccc(N3CCOCC3)cn2)cc1Nc1cc(S(C)(=O)=O)ccc1OC [Example 222] |  | 
5.88 | 5.80 | CNC(=O)c1cnc(Nc2ccc(F)cn2)cc1Nc1ccccc1OC(F)(F)F [Example 209] |  | 
7.30 | 7.30 | [2H]C([2H])([2H])NC(=O)c1cnc(Nc2cc(C)c(F)cn2)cc1Nc1cccc(-c2cnn(C)c2)c1OC [Example 399] |  | 
7.05 | 6.80 | CNC(=O)c1cnc(Nc2ccc(N3CCOCC3)cn2)cc1Nc1cccc2c1OCCO2 [Example 225] |  | 
6.37 | 6.13 | CNC(=O)c1cnc(Nc2cc(S(=O)(=O)N(C)C)ccn2)cc1Nc1ccccc1S(C)(=O)=O [Example 19] |  | 
8.00 | 7.30 | CNC(=O)c1cnc(Nc2cc(C)nc(C)n2)cc1Nc1cccc(-c2ncn(CC(F)F)n2)c1OC [Example 378] |  | 
7.15 | 6.75 | CNC(=O)c1cnc(Nc2ccc(OC)cn2)cc1Nc1cc(F)cc(F)c1OC [Example 133] |  | 
6.68 | 6.59 | CNC(=O)c1cnc(Nc2ccc(F)cn2)cc1Nc1ccc(F)c(F)c1OC [Example 96] |  | 
6.89 | 6.82 | CNC(=O)c1cnc(Nc2cc(C)c(F)cn2)cc1Nc1cccc(C(=O)NCC2(C#N)CC2)c1OC [Example 354] |  | 
5.16 | 5.57 | CNC(=O)c1cnc(Nc2ccc(F)cn2)cc1Nc1ccc(S(C)(=O)=O)cc1 [Example 201] |  | 
7.30 | 7.52 | CNC(=O)c1cnc(Nc2ccc(N3CCCCC3)cn2)cc1Nc1ccccc1S(C)(=O)=O [Example 435] |  | 

Compound | pIC50 [1, 3] | pIC50 [2, 4] | pIC50 ([1]; Homo sapiens, KIT225, read-out: IFNα (Kit225 T Cell Inhibition Data)) | pIC50 ([2]; Homo sapiens, KIT225, read-out: IL23 (Kit225 T Cell Inhibition Data))
CNC(=O)c1cnc(Nc2cccnn2)cc1Nc1ccccc1S(C)(=O)=O [Example 36] | 6.15 | 5.88 |  | 
CNC(=O)c1cnc(Nc2cc(C)ccn2)cc1Nc1ccccc1S(C)(=O)=O [Example 4] | 7.52 | 7.44 |  | 
